Test results published in patent publication US11866518B2, “Bicyclic peptide ligands specific for TSLP” (BicycleTx Limited, priority 2020, dated 2024).
Where two headings read alike, the source gives them in different places. *1 amine or outer side, *2 acyl side, *3 side chain or, on linkers, in order; H or OH if unused. Where a SMILES comes first, the peptide text is derived from it. Bridges are numbered along the chain shown (N, C = ends). TATA = O=C(CC[*:1])N1CN(C(=O)CC[*:2])CN(C(=O)CC[*:3])C1

Legend:
TSLP [1] = target: T1, TSLP (Homo sapiens, UniProt Q969D9); assay: Human peripheral blood mononuclear cell assay (TSLP-induced CCL17/TARC); format: cell-based; design: host or cells: added to human PBMCs from healthy donors
Method: Human peripheral blood mononuclear cells (PMBCs) were obtained from heparinized whole blood (healthy donors) by density gradient centrifugation using Lymphoprep (StemCell Technologies, Vancouver, BC) according to the manufacturers instructions. The PBMCs were washed twice with PBS containing 2 mM EDTA and 2% fetal calf serum (FCS) and reconstituted in RPMI containing 10% FCS and 2% PenStrep at a final concentration of 3 million cells/mL. This cell suspension (100 μL) was aliquoted into the wells of a 96-well flat bottom tissue culture plate. 5 μL of bicycle peptide or vehicle (0.1% DMSO in complete medium) was then added and mixed with 5 μL of TSLPvehicle (complete medium). […] The plate was incubated for 30 minutes are rt. 10 μL of this mixture was added to cells and the plate was incubated for 24 hours in a 10% CO2, humidified incubator at 37° C. The plate was centrifuged at 300×g for 5 min and the collected supernatants frozen at −20° C. for subsequent CCL17/TARC analysis.
CCL17/TARC was determined by MSD (MesoScale Discovery, Maryland, USA) according to the manufacturer's instructions.

TSLP [2] = target: T1, TSLP; assay: Human TSLP Surface Plasmon Resonance (SPR) binding assay; design: The resulting construct spCD33-6×HN-TEV-hTSLP(29-159)-Avi; 6xHN tag with TEV site (N, cleaved yes); made in house; host or cells: Expi293F cells; details: biotinylated human TSLP immobilized on streptavidin chip; 20° C.; steady-state or kinetic 1:1 fit; read-out: hTSLP SPR Kd
[3] = read-out: CCL17 % Inhibition @ 10 μM, […] TSLP
[4] = human PBMCs, 10 μM peptide, 50 pM TSLP, 24 hours, read-out: CCL17 % Inhibition @ 10 μM, 50 pM TSLP

T1 sequence (Q969D9 29-159): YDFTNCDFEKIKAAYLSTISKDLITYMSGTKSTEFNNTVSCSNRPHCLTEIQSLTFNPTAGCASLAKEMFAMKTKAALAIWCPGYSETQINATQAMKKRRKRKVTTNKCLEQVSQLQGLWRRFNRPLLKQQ

Compound	inhibition at 10 µM (TSLP [1]; [3])	Kd (TSLP [2])	inhibition at 10 µM (TSLP [1]; [4])
CC(=O)N[C@H]1CSCCC(=O)N2CN3CN(C2)C(=O)CCSC[C@H](NC(=O)[C@H](CC(=O)O)NC(=O)[C@H](CCC(=O)O)NC(=O)[C@H](CC(C)C)NC(=O)[C@H](Cc2c[nH]c4ccccc24)NC(=O)[C@H](CCC(N)=O)NC1=O)C(=O)N[C@@H](Cc1c[nH]c2ccccc12)C(=O)N[C@@H](CCCNC(=N)N)C(=O)NCC(=O)N[C@@H](Cc1ccc(Cl)c(Cl)c1)C(=O)N[C@H](C(N)=O)CSCCC3=O [Example 11, Ac-(SEQ ID NO: 9)]	43%	5.8 nM	
CC(=O)N[C@H]1CSCCC(=O)N2CN3CN(C2)C(=O)CCSC[C@H](NC(=O)[C@H](CC(=O)O)NC(=O)[C@H](CCC(=O)O)NC(=O)[C@H](CC(C)C)NC(=O)[C@H](Cc2c[nH]c4ccccc24)NC(=O)[C@H](CCC(N)=O)NC1=O)C(=O)N[C@@H](Cc1c[nH]c2ccccc12)C(=O)N[C@@H](CCCNC(=N)N)C(=O)NCC(=O)N[C@@H](Cc1ccc(F)c(F)c1)C(=O)N[C@H](C(N)=O)CSCCC3=O [Example 22, Ac-(SEQ ID NO: 20)]			41%
CC(=O)N[C@H]1CSCCC(=O)N2CN3CN(C2)C(=O)CCSC[C@H](NC(=O)[C@H](CC(=O)O)NC(=O)[C@H](CCC(=O)O)NC(=O)[C@H](CC(C)C)NC(=O)[C@H](Cc2c[nH]c4ccccc24)NC(=O)[C@H](CCC(N)=O)NC1=O)C(=O)N[C@@H](Cc1c[nH]c2ccccc12)C(=O)N[C@@H](CCCNC(=N)N)C(=O)NCC(=O)N[C@@H](Cc1cccc(Cl)c1)C(=O)N[C@H](C(N)=O)CSCCC3=O [Example 32, Ac-(SEQ ID NO: 29)]	14%		
CSCC[C@H](NC(=O)[C@H](CC(=O)O)NC(=O)CNC(=O)[C@H](CC(=O)O)NC(=O)[C@H](C)NC(=O)[C@@H]1CSCCC(=O)N2CN3CN(C2)C(=O)CCSC[C@H](NC(=O)[C@H](CC(=O)O)NC(=O)[C@H](CCC(=O)O)NC(=O)[C@H](CC(C)C)NC(=O)[C@H](Cc2c[nH]c4ccccc24)NC(=O)[C@H](CCC(N)=O)NC(=O)[C@@H](NC(=O)[C@H](C)N)CSCCC3=O)C(=O)N[C@@H](Cc2c[nH]c3ccccc23)C(=O)N[C@@H](CCCNC(=N)N)C(=O)NCC(=O)N[C@@H](Cc2ccccc2)C(=O)N1)C(=O)N[C@@H](CC(C)C)C(N)=O [Example 42, A-(SEQ ID NO: 38)-ADGDML]	47%		< 20%
CC(=O)N[C@H]1CSCCC(=O)N2CN3CN(C2)C(=O)CCSC[C@H](NC(=O)[C@H](CC(=O)O)NC(=O)[C@H](CCC(=O)O)NC(=O)[C@H](CC(C)(C)C)NC(=O)[C@H](Cc2c[nH]c4ccccc24)NC(=O)[C@H](CCC(N)=O)NC1=O)C(=O)N[C@@H](Cc1c[nH]c2ccccc12)C(=O)N[C@@H](CCCNC(=N)N)C(=O)NCC(=O)N[C@@H](Cc1ccccc1)C(=O)N[C@H](C(N)=O)CSCCC3=O [Example 44, Ac-(SEQ ID NO: 39)]	52%		
CC(C)C[C@@H]1NC(=O)[C@H](Cc2c[nH]c3ccccc23)NC(=O)[C@H](CCC(N)=O)NC(=O)[C@@H](NC(=O)[C@H](CCC(=O)O)NC(=O)[C@H](C)NC(=O)[C@H](CO)NC(=O)[C@H](CC(=O)O)NC(=O)[C@@H](NC(=O)CN)[C@@H](C)O)CSCCC(=O)N2CN3CN(C2)C(=O)CCSC[C@H](NC(=O)[C@H](CC(=O)O)NC(=O)[C@H](CCC(=O)O)NC1=O)C(=O)N[C@@H](Cc1c[nH]c2ccccc12)C(=O)N[C@@H](CCCNC(=N)N)C(=O)NCC(=O)N[C@@H](Cc1ccccc1)C(=O)N[C@H](C(=O)N[C@@H](C)C(N)=O)CSCCC3=O [Example 45, GTDSAE-(SEQ ID NO: 38)-A]	0%		
CC(=O)N[C@H]1CSCCC(=O)N2CN3CN(C2)C(=O)CCSC[C@H](NC(=O)[C@H](CC(=O)O)NC(=O)[C@H](CCC(=O)O)NC(=O)[C@H](CC(C)C)NC(=O)[C@H](Cc2c[nH]c4ccccc24)NC(=O)[C@H](CCC(N)=O)NC1=O)C(=O)N[C@@H](Cc1c[nH]c2ccccc12)C(=O)N[C@@H](CCCNC(=N)N)C(=O)NCC(=O)N[C@@H](Cc1cccc2ccccc12)C(=O)N[C@H](C(N)=O)CSCCC3=O [Example 47, Ac-(SEQ ID NO: 41)]	-7%		
CC(=O)N[C@H]1CSCCC(=O)N2CN3CN(C2)C(=O)CCSC[C@H](NC(=O)[C@H](CC(=O)O)NC(=O)[C@H](CCC(=O)O)NC(=O)[C@H](CC(C)C)NC(=O)[C@H](Cc2c[nH]c4ccccc24)NC(=O)[C@H](CCC(N)=O)NC1=O)C(=O)N[C@@H](Cc1c[nH]c2ccccc12)C(=O)N[C@@H](CCCNC(=N)N)C(=O)NCC(=O)N[C@@H](Cc1ccc2ccccc2c1)C(=O)N[C@H](C(N)=O)CSCCC3=O [Example 50, Ac-(SEQ ID NO: 42)]	33%		
CC(=O)N[C@@H](C)C(=O)N[C@H]1CSCCC(=O)N2CN3CN(C2)C(=O)CCSC[C@@H](C(=O)N2CCC[C@H]2C(=O)N[C@@H](CC(C)C)C(=O)N[C@@H](CC(=O)O)C(N)=O)NC(=O)[C@H](Cc2ccccc2)NC(=O)CNC(=O)[C@H](CCCNC(=N)N)NC(=O)[C@H](Cc2c[nH]c4ccccc24)NC(=O)[C@H](CSCCC3=O)NC(=O)[C@H](CC(=O)O)NC(=O)[C@H](CCC(=O)O)NC(=O)[C@H](CC(C)C)NC(=O)[C@H](Cc2c[nH]c3ccccc23)NC(=O)[C@H](CCC(N)=O)NC1=O [Example 53, Ac-A-(SEQ ID NO: 38)-PLD]	-2%	43 nM	
CSCC[C@H](NC(=O)[C@@H](N)[C@@H](C)O)C(=O)N[C@@H](CCC(=O)O)C(=O)N[C@@H](Cc1ccc(O)cc1)C(=O)N[C@@H](CCCNC(=N)N)C(=O)N[C@@H](CC(=O)O)C(=O)N[C@H]1CSCCC(=O)N2CN3CN(C2)C(=O)CCSC[C@H](NC(=O)[C@H](CC(=O)O)NC(=O)[C@H](CCC(=O)O)NC(=O)[C@H](CC(C)C)NC(=O)[C@H](Cc2c[nH]c4ccccc24)NC(=O)[C@H](CCC(N)=O)NC1=O)C(=O)N[C@@H](Cc1c[nH]c2ccccc12)C(=O)N[C@@H](CCCNC(=N)N)C(=O)NCC(=O)N[C@@H](Cc1ccccc1)C(=O)N[C@H](C(=O)N[C@@H](C)C(N)=O)CSCCC3=O [Example 56, TMEYRD-(SEQ ID NO: 38)-A]	40%		
CC(C)C[C@@H]1NC(=O)[C@H](Cc2c[nH]c3ccccc23)NC(=O)[C@H](CCC(N)=O)NC(=O)[C@@H](NC(=O)[C@H](C)N)CSCCC(=O)N2CN3CN(C2)C(=O)CCSC[C@H](NC(=O)[C@H](CC(=O)O)NC(=O)[C@H](CCC(=O)O)NC1=O)C(=O)N[C@@H](Cc1c[nH]c2ccccc12)C(=O)N[C@@H](CCCNC(=N)N)C(=O)NCC(=O)N[C@@H](Cc1ccccc1)C(=O)N[C@H](C(=O)N[C@@H](CO)C(=O)N[C@@H](CO)C(=O)N[C@@H](CO)C(=O)N[C@@H](CC(=O)O)C(=O)N[C@@H](CCC(N)=O)C(=O)N[C@@H](CO)C(N)=O)CSCCC3=O [Example 59, A-(SEQ ID NO: 38)-SSSDQS]	2%	52 nM	
CC(C)C[C@@H]1NC(=O)[C@H](Cc2c[nH]c3ccccc23)NC(=O)[C@H]([C@@H](C)O)NC(=O)[C@@H](NC(=O)[C@H](C)N)CSCCC(=O)N2CN3CN(C2)C(=O)CCSC[C@H](NC(=O)[C@H](CC(=O)O)NC(=O)[C@H](CCC(=O)O)NC1=O)C(=O)N[C@@H](Cc1c[nH]c2ccccc12)C(=O)N[C@@H](CCCNC(=N)N)C(=O)NCC(=O)N[C@@H](Cc1ccccc1)C(=O)N[C@H](C(=O)N[C@@H](C)C(=O)N[C@@H](CC(=O)O)C(=O)N[C@@H](CO)C(N)=O)CSCCC3=O [Example 63, A-(SEQ ID NO: 49)-ADS] (H-ACTWLEDCWRGFCADS-NH2; linker 2-8-13 via TATA; N-terminus assumed)	24%	65 nM	
CC(C)C[C@@H]1NC(=O)[C@H](Cc2c[nH]c3ccccc23)NC(=O)[C@H](CCC(N)=O)NC(=O)[C@@H](NC(=O)[C@H](C)N)CSCCC(=O)N2CN3CN(C2)C(=O)CCSC[C@H](NC(=O)[C@H](CC(=O)O)NC(=O)[C@H](CCC(=O)O)NC1=O)C(=O)N[C@@H](Cc1c[nH]c2ccccc12)C(=O)N[C@@H](CCCNC(=N)N)C(=O)NCC(=O)N[C@@H](Cc1ccccc1)C(=O)N[C@H](C(=O)N[C@@H](C)C(N)=O)CSCCC3=O [Example 68, A-(SEQ ID NO: 38)-A]	33%		
CC(C)C[C@@H]1NC(=O)[C@H](Cc2c[nH]c3ccccc23)NC(=O)[C@H]([C@@H](C)O)NC(=O)[C@@H](NC(=O)[C@H](C)N)CSCCC(=O)N2CN3CN(C2)C(=O)CCSC[C@H](NC(=O)[C@H](CC(=O)O)NC(=O)[C@H](CC(=O)O)NC1=O)C(=O)N[C@@H](Cc1c[nH]c2ccccc12)C(=O)N[C@@H](CCCNC(=N)N)C(=O)NCC(=O)N[C@@H](Cc1ccccc1)C(=O)N[C@H](C(=O)N[C@@H](C)C(N)=O)CSCCC3=O [Example 76, A-(SEQ ID NO: 57)-A] (H-ACTWLDDCWRGFCA-NH2; linker 2-8-13 via TATA; N-terminus and C-terminus assumed)	0%		
CC(=O)N[C@H]1CSCCC(=O)N2CN3CN(C2)C(=O)CCSC[C@H](NC(=O)[C@H](CC(=O)O)NC(=O)[C@H](CCC(=O)O)NC(=O)[C@H](CC(C)C)NC(=O)[C@H](Cc2c[nH]c4ccccc24)NC(=O)[C@H](CCC(N)=O)NC1=O)C(=O)N[C@@H](Cc1c[nH]c2ccccc12)C(=O)N[C@@H](CCCNC(=N)N)C(=O)NCC(=O)N[C@@H](Cc1ccccc1)C(=O)N[C@H](C(N)=O)CSCCC3=O [Example 79, Ac-(SEQ ID NO: 38)]	-18%		
